Several values for one entry are separate records, joined by “and”; a condition that tells them apart may be missing. Identical values can stand only once. Inconclusive results and toxic doses are left out. How the source made its calls: active means survival T/C of 150% or more; inactive means T/C below 125% in these data. Peptide text beside a SMILES is read from it. * marks the point of attachment. Cbz = O=C(OCc1ccccc1)*; Bn = c1ccc(C*)cc1
System: P388 leukemia ip, CD2F1 mice, survival T/C
Assay: NCI In Vivo Anticancer Drug Screen. Data for tumor model P388 Leukemia (intraperitoneal) in CD2F1 (CDF1) mice
Details: endpoint: median survival time, higher = longer survival
In short: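 Mice carrying the transplanted tumor received test compound or vehicle. Survival was recorded in each group, and the value is the treated-group measurement divided by that of the vehicle-treated control group.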

[1] = dose: 50.0 mg/kg/injection, schedule: Q01DX009 (ip), vehicle: saline with Tween-80
[2] = dose: 100.0 mg/kg/injection, schedule: Q01DX009 (ip), vehicle: saline with Tween-80
[3] = dose: 100.0 mg/kg/injection, schedule: Q04DX003 (ip), vehicle: saline
[4] = dose: 200.0 mg/kg/injection, schedule: Q01DX009 (ip), vehicle: saline with Tween-80
[5] = dose: 200.0 mg/kg/injection, schedule: Q04DX003 (ip), vehicle: saline
[6] = dose: 100.0 mg/kg/injection, schedule: Q04DX003 (ip), vehicle: Klucel (hydroxypropylcellulose) (HPC)
[7] = dose: 200.0 mg/kg/injection, schedule: Q04DX003 (ip), vehicle: Klucel (hydroxypropylcellulose) (HPC)
[8] = dose: 400.0 mg/kg/injection, schedule: Q04DX003 (ip), vehicle: Klucel (hydroxypropylcellulose) (HPC)
[9] = dose: 50.0 mg/kg/injection, schedule: Q01DX005 (ip), vehicle: Klucel (hydroxypropylcellulose) (HPC)

Measured: T/C

CCOC(=O)C1(C(=O)OCC)COC(C)(C)OC1
inactive: dose: 12.5 mg/kg/injection, schedule: Q01DX009 (ip), vehicle: saline with Tween-80 105 % of control | dose: 25.0 mg/kg/injection, schedule: Q01DX009 (ip), vehicle: saline with Tween-80 101 % of control and 97 % of control | [1] 102 % of control and 106 % of control | [2] 106 % of control and 108 % of control | [3] 100 % of control | [4] 98 % of control and 103 % of control | [5] 101 % of control | dose: 400.0 mg/kg/injection, schedule: Q04DX003 (ip), vehicle: saline 100 % of control | dose: 600.0 mg/kg/injection, schedule: Q04DX003 (ip), vehicle: saline 101 % of control

N=C1OC(C(Cl)(Cl)Cl)N(c2cccc(F)c2)C1=O (centres undefined)
inactive: dose: 60.0 mg/kg/injection, schedule: Q01DX005 (ip), vehicle: Klucel + Tween-80 100 % of control | dose: 120.0 mg/kg/injection, schedule: Q01DX005 (ip), vehicle: Klucel + Tween-80 100 % of control | dose: 240.0 mg/kg/injection, schedule: Q01DX005 (ip), vehicle: Klucel + Tween-80 89 % of control

CCO/C=C1/N=C(c2cccc3ccccc23)OC1=O
inactive: dose: 60.0 mg/kg/injection, schedule: Q01DX005 (ip), vehicle: saline with Tween-80 99 % of control | dose: 120.0 mg/kg/injection, schedule: Q01DX005 (ip), vehicle: saline with Tween-80 99 % of control | dose: 240.0 mg/kg/injection, schedule: Q01DX005 (ip), vehicle: saline with Tween-80 99 % of control

FC(F)(F)SN1CN(SC(F)(F)F)CN(SC(F)(F)F)CN(SC(F)(F)F)C1
inactive: dose: 60.0 mg/kg/injection, schedule: Q01DX005 (ip), vehicle: saline 103 % of control and 96 % of control | dose: 120.0 mg/kg/injection, schedule: Q01DX005 (ip), vehicle: saline 96 % of control | dose: 240.0 mg/kg/injection, schedule: Q01DX005 (ip), vehicle: saline 100 % of control

N#CNc1nnnn1-c1ccc(-n2nnnc2NC#N)cc1 (tested in a mixture with another compound)
inactive: [6] 92 % of control | [7] 91 % of control | [8] 90 % of control

CC1=CC(=O)C=C/C1=N/S(=O)(=O)c1ccccc1
inactive: dose: 12.5 mg/kg/injection, schedule: Q01DX001 (ip), vehicle: saline with Tween-80 100 % of control | dose: 25.0 mg/kg/injection, schedule: Q01DX001 (ip), vehicle: saline with Tween-80 90 % of control | dose: 50.0 mg/kg/injection, schedule: Q01DX001 (ip), vehicle: saline with Tween-80 100 % of control

CCOc1ccc(/C=N/NC(=O)C(=O)N/N=C/c2ccc(OCC)c(OCC)c2)cc1OCC
inactive: dose: 6.25 mg/kg/injection, schedule: Q01DX005 (ip), vehicle: Klucel (hydroxypropylcellulose) (HPC) 102 % of control and 95 % of control and 96 % of control | dose: 50.0 mg/kg/injection, schedule: Q01DX009 (ip), vehicle: Klucel (hydroxypropylcellulose) (HPC) 90 % of control | dose: 200.0 mg/kg/injection, schedule: Q01DX009 (ip), vehicle: Klucel (hydroxypropylcellulose) (HPC) 92 % of control

Cc1nc2ncn(-c3ccccc3)c2c(=O)n1Cc1ccccc1
inactive: [9] 105 % of control | dose: 100.0 mg/kg/injection, schedule: Q01DX005 (ip), vehicle: Klucel (hydroxypropylcellulose) (HPC) 105 % of control | dose: 200.0 mg/kg/injection, schedule: Q01DX005 (ip), vehicle: Klucel (hydroxypropylcellulose) (HPC) 105 % of control

O=C(N1CCN(c2ccccc2)C1=O)N1CCN(c2ccccc2)C1=O
inactive: [1] 98 % of control | [2] 95 % of control | [4] 91 % of control

CN(C)CCCN1c2ccccc2Oc2ccc(Cl)cc21
inactive: dose: 50.0 mg/kg/injection, schedule: Q01DX005 (ip), vehicle: saline 105 % of control | dose: 100.0 mg/kg/injection, schedule: Q01DX005 (ip), vehicle: saline 106 % of control

CSc1nc2[nH]c(=O)[nH]c(=O)c2[nH]1
inactive: dose: 50.0 mg/kg/injection, schedule: Q01DX005 (ip), vehicle: saline with Tween-80 95 % of control | dose: 100.0 mg/kg/injection, schedule: Q01DX005 (ip), vehicle: saline with Tween-80 94 % of control | dose: 200.0 mg/kg/injection, schedule: Q01DX005 (ip), vehicle: saline with Tween-80 108 % of control

COC(=O)CC/C=N/NC(N)=O
inactive: dose: 50.0 mg/kg/injection, schedule: Q01DX009 (ip), vehicle: saline 96 % of control | dose: 100.0 mg/kg/injection, schedule: Q01DX009 (ip), vehicle: saline 114 % of control | dose: 200.0 mg/kg/injection, schedule: Q01DX009 (ip), vehicle: saline 114 % of control

COc1ccc(N=Nc2nc(N)c(C(N)=O)[nH]2)cc1
inactive: [6] 100 % of control | [7] 103 % of control | [8] 106 % of control

NC(=O)C(Cc1ccccc1)NC(=O)C(CSCc1ccccc1)NC(=O)OCc1ccccc1 (centres undefined) (Cbz-Cys(Bn)-Phe-NH2; configuration not given here)
inactive: dose: 12.5 mg/kg/injection, schedule: Q01DX005 (ip), vehicle: Klucel (hydroxypropylcellulose) (HPC) 103 % of control | dose: 25.0 mg/kg/injection, schedule: Q01DX005 (ip), vehicle: Klucel (hydroxypropylcellulose) (HPC) 102 % of control | [9] 86 % of control and 91 % of control

O=C1CCCC1C(=S)S (centres undefined)
inactive: [3] 102 % of control | [5] 102 % of control

Reference: PubChem BioAssay AID330 (DTP/NCI, 2004)
